Reference: ChEMBL document CHEMBL1268934, “Design, synthesis, and subtype selectivity of 3,6-disubstituted β-carbolines at Bz/GABA(A)ergic receptors. SAR and studies directed toward agents for treatment of alcohol abuse” (Bioorg Med Chem, 2010)

Tests used:
Type in all cases: cell-based, HEK293
[1] = biological target: GABA A receptor alpha-4/beta-3/gamma-2 (Homo sapiens, UniProt P18507+P28472+P48169); test: Displacement of [3H]flunitrazepam from human recombinant GABAA alpha-4-beta-3-gamma-2 receptor expressed in HEK cells by liquid scintillation counting
Sequence of GABA A receptor alpha-4/beta-3/gamma-2 (P48169 whole entry, one chain of several): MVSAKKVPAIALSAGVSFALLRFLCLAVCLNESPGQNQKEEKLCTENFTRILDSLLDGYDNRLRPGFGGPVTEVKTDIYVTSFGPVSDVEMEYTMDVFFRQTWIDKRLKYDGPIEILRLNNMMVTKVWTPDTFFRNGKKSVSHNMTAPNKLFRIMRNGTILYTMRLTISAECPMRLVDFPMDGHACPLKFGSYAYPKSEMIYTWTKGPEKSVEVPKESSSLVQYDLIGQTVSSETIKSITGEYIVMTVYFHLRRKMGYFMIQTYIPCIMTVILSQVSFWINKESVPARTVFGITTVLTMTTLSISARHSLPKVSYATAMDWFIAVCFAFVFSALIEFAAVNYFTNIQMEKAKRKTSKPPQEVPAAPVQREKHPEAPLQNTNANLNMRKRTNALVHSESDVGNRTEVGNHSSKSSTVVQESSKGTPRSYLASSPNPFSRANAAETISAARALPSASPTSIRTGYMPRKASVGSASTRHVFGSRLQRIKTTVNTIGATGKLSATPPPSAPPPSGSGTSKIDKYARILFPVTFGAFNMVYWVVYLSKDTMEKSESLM

[2] = biological target: GABA-A receptor; alpha-6/beta-3/gamma-2 (Homo sapiens, UniProt P18507+P28472+Q16445); test: Displacement of [3H]flunitrazepam from human recombinant GABAA alpha-6-beta-3-gamma-2 receptor expressed in HEK cells by liquid scintillation counting
Sequence of GABA-A receptor; alpha-6/beta-3/gamma-2 (Q16445 whole entry, one chain of several): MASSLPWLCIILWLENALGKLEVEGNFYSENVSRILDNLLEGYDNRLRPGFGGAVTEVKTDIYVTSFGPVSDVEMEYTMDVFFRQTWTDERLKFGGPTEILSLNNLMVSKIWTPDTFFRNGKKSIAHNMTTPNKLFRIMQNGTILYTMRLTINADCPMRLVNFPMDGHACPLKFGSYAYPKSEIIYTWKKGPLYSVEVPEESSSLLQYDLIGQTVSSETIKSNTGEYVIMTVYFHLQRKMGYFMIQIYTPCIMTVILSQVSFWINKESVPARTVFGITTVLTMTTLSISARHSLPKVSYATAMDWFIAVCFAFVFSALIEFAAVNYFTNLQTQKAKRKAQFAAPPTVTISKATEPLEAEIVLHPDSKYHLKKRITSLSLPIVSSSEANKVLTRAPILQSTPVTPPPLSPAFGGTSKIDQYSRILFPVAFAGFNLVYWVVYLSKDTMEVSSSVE

[3] = biological target: T1, GABA-A receptor; alpha-3/beta-3/gamma-2 (Homo sapiens, UniProt P18507+P28472+P34903); test: Displacement of [3H]flunitrazepam from human recombinant GABAA alpha-3-beta-3-gamma-2 receptor expressed in HEK cells by liquid scintillation counting
T1 sequence (P18507 whole entry): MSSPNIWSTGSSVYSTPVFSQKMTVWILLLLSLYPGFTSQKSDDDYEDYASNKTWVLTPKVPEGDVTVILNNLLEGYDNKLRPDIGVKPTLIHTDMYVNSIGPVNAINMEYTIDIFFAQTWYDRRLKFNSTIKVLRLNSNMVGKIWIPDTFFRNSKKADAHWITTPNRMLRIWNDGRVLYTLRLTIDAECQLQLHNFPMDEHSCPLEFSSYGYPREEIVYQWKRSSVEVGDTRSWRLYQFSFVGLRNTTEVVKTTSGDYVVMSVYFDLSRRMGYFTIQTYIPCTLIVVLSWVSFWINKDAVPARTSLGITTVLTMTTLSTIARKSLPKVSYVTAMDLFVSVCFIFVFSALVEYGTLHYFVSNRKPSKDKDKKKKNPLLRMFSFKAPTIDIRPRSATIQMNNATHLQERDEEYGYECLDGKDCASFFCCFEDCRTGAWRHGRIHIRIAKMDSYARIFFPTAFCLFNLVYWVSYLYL
T1 sequence (P28472 whole entry): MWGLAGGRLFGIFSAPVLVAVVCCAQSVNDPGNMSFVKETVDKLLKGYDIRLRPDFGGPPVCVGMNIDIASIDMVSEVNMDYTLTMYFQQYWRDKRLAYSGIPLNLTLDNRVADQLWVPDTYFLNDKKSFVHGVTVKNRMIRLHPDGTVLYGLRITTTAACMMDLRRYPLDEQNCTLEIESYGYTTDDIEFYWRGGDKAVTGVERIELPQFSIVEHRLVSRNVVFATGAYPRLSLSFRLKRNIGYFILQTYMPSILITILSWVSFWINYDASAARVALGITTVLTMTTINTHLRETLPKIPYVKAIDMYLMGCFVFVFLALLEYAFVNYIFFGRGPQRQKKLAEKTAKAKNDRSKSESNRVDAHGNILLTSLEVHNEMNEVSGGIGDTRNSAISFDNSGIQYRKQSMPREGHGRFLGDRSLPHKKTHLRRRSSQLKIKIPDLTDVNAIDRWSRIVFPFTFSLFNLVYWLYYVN
T1 sequence (P34903 whole entry): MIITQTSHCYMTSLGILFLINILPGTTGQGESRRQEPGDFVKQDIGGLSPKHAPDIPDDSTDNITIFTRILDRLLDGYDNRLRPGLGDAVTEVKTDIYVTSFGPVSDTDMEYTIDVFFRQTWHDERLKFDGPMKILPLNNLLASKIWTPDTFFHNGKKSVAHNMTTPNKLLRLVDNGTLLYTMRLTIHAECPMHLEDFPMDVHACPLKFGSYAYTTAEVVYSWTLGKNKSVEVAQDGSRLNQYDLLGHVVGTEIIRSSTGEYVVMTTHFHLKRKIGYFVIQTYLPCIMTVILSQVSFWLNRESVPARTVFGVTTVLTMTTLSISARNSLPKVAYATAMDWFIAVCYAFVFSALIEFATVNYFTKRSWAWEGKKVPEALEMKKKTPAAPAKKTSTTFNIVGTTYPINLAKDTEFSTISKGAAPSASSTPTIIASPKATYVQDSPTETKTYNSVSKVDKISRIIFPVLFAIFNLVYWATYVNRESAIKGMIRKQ

[4] = biological target: T2, GABA-A receptor; alpha-2/beta-3/gamma-2 (Homo sapiens, UniProt P18507+P28472+P47869); test: Displacement of [3H]flunitrazepam from human recombinant GABAA alpha-2-beta-3-gamma-2 receptor expressed in HEK cells by liquid scintillation counting
T2 sequence (P18507 whole entry): T1 sequence (P18507 whole entry)
T2 sequence (P28472 whole entry): T1 sequence (P28472 whole entry)
T2 sequence (P47869 whole entry): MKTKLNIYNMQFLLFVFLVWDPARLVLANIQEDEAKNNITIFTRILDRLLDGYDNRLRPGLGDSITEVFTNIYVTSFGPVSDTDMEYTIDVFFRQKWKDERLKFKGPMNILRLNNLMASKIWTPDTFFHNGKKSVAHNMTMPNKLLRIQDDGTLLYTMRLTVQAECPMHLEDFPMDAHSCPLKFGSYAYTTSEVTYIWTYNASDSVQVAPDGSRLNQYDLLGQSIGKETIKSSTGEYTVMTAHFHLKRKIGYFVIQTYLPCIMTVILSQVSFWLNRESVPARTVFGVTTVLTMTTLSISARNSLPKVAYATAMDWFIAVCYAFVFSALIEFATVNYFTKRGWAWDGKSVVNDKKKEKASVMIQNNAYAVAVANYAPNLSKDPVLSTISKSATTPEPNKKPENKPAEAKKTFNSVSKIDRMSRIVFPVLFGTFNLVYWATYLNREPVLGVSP

[5] = biological target: T3, GABA-A receptor; alpha-5/beta-3/gamma-2 (Homo sapiens, UniProt P18507+P28472+P31644); test: Displacement of [3H]flunitrazepam from human recombinant GABAA alpha-5-beta-3-gamma-2 receptor expressed in HEK cells by liquid scintillation counting
T3 sequence (P18507 whole entry): T1 sequence (P18507 whole entry)
T3 sequence (P28472 whole entry): T1 sequence (P28472 whole entry)
T3 sequence (P31644 whole entry): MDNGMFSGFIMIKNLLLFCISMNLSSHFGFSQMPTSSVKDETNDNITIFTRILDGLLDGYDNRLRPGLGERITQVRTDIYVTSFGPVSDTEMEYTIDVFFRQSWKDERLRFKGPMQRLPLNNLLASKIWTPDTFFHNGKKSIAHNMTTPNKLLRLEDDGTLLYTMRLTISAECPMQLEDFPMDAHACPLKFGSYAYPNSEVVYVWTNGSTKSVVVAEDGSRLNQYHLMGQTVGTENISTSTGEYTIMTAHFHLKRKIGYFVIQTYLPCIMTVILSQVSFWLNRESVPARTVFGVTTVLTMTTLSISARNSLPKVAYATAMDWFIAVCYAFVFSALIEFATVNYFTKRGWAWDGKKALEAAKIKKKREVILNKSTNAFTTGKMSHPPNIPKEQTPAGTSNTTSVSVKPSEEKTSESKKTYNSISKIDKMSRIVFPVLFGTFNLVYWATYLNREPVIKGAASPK

[6] = biological target: T4, GABA-A receptor; alpha-1/beta-3/gamma-2 (Homo sapiens, UniProt P14867+P18507+P28472); test: Displacement of [3H]flunitrazepam from human recombinant GABAA alpha-1-beta-3-gamma-2 receptor expressed in HEK cells by liquid scintillation counting
T4 sequence (P14867 whole entry): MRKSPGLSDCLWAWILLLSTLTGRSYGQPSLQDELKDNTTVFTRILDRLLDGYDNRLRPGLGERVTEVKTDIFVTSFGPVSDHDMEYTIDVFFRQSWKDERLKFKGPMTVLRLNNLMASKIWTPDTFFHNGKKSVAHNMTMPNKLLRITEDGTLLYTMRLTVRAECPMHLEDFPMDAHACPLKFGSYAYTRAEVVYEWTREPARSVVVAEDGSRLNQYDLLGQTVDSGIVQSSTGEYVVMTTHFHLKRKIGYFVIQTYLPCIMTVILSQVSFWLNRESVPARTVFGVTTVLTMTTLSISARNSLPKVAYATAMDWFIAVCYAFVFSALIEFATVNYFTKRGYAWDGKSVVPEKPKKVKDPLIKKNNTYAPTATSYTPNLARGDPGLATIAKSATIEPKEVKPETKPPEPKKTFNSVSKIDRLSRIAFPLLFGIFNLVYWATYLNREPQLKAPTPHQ
T4 sequence (P18507 whole entry): T1 sequence (P18507 whole entry)
T4 sequence (P28472 whole entry): T1 sequence (P28472 whole entry)

CCC(OC(=O)c1cc2c(cn1)[nH]c1ccccc12)C(F)(F)F (stereo not given)
Ki ([1]; hek293): Not Active
Ki [2]: > 2000 nM

CCCC(=O)c1cc2c(cn1)[nH]c1ccc(F)cc12
Ki [3]: 40 nM
Ki ([1]; hek293): Not Active
Ki [4]: 27 nM
Ki [2]: > 2500 nM
Ki [5]: 254 nM
Ki [6]: 3.7 nM

CC(C)(C)OC(=O)c1cc2c(cn1)[nH]c1ccc(C(C)(C)C)cc12
Ki [3]: 24.5 nM
Ki [4]: 8.93 nM
Ki [5]: 7.49 nM
Ki [6]: 2.78 nM

O=C(OCC(Cl)(Cl)Cl)c1cc2c(cn1)[nH]c1ccccc12
Ki [3]: 43 nM
Ki [4]: 33 nM
Ki [5]: 189 nM
Ki [6]: 10 nM

O=C(OCC(F)(F)F)c1cc2c(cn1)[nH]c1ccc(-c3cccs3)cc12
Ki [3]: 72 nM
Ki [4]: 13 nM
Ki [5]: 449 nM
Ki [6]: 9.2 nM

O=C(OCC(F)(F)F)c1cc2c(cn1)[nH]c1ccc(I)cc12
Ki [3]: 47 nM
Ki [4]: 39 nM
Ki [5]: 122 nM
Ki [6]: 12 nM

CC(C)(C)OC(=O)c1cc2c(cn1)[nH]c1ccc(C#CC#Cc3ccc4[nH]c5cnc(C(=O)OC(C)(C)C)cc5c4c3)cc12
Ki [3]: 3940 nM
Ki [4]: 1060 nM
Ki [6]: 120 nM

O=C(OCC(F)(F)F)c1cc2c(cn1)[nH]c1ccc(-c3ccco3)cc12
Ki [3]: 117 nM
Ki [4]: 143 nM
Ki [5]: 127 nM
Ki [6]: 26 nM

CC(C)CCOc1cc2c3ccccc3nc-2c[nH]1
Ki [3]: 3000 nM
Ki [4]: 3000 nM
Ki [2]: 10000 nM
Ki [5]: 3000 nM

CC(C)(C)OC(=O)c1cc2c(cn1)[nH]c1ccc(-c3cccs3)cc12
Ki [3]: 314 nM
Ki ([1]; hek293): Not Active
Ki [4]: 166 nM
Ki [5]: 2860 nM
Ki [6]: 37 nM

CC[C@H](C)OC(=O)c1cc2c(cn1)[nH]c1ccccc12
Ki ([1]; hek293): Not Active
Ki [2]: > 2000 nM

CC(C)(C)OC(=O)c1cc2c3cc(I)ccc3n(C(=O)OC(C)(C)C)c2cn1
Ki [5]: 1850 nM

CCC(C)OC(=O)c1cc2c(cn1)[nH]c1ccccc12 (single isomer, unassigned)
Ki ([1]; hek293): Not Active

CC(C)(C)OC(=O)c1ccc2[nH]c3ccc(C#Cc4ccc5[nH]c6ccc(C(=O)OC(C)(C)C)cc6c5c4)cc3c2c1
Ki [3]: 100 nM
Ki [4]: 124 nM
Ki [2]: > 4000 nM
Ki [5]: > 300 nM
Ki [6]: 30 nM

CC(C)(C)OC(=O)c1cc2c(cn1)[nH]c1ccc(-c3ccccc3)cc12
Ki [3]: 44.3 nM
Ki ([1]; hek293): Not Active
Ki [4]: 2.02 nM
Ki [5]: 76.5 nM
Ki [6]: 3.63 nM

CCOC(=O)c1cc2c(cn1)[nH]c1ccc(I)cc12
Ki [3]: 34 nM
Ki [4]: 31 nM
Ki [5]: 286 nM
Ki [6]: 4.8 nM

O=C(OC(C(F)(F)F)C(F)(F)F)c1cc2c(cn1)[nH]c1ccccc12
Ki [3]: 32 nM
Ki [4]: 8 nM
Ki [5]: 461 nM
Ki [6]: 3.99 nM

CCCCOc1cc2c(cn1)[nH]c1ccccc12
Ki [2]: 1000 nM

CCOC(=O)c1cc2c(cn1)[nH]c1ccc(C#C[Si](C)(C)C)cc12
Ki [3]: 5.58 nM
Ki [4]: 4.5 nM
Ki [5]: 47 nM
Ki [6]: 4.4 nM

C[C@H](OC(=O)c1cc2c(cn1)[nH]c1ccccc12)C(F)(F)F
Ki [3]: 172 nM
Ki ([1]; read-out: Ki): > 3000 nM
Ki [4]: 931 nM
Ki [2]: > 2000 nM
Ki [5]: 1850 nM
Ki [6]: 90 nM

O=C(Oc1cc(F)c(F)cc1F)c1cc2c(cn1)[nH]c1ccccc12
Ki [3]: 44.8 nM
Ki [4]: 177 nM
Ki [5]: 422 nM
Ki [6]: 22 nM

CC(C)(C)OC(=O)c1cc2c(cn1)[nH]c1ccc(C#C[Si](C)(C)C)cc12
Ki [3]: 36 nM
Ki [4]: 30 nM
Ki [5]: 108 nM
Ki [6]: 6.8 nM

O=C(OC(C(F)(F)F)C(F)(F)F)c1cc2c(cn1)[nH]c1ccc(I)cc12
Ki [3]: 131 nM
Ki [4]: 301 nM
Ki [5]: 681 nM
Ki [6]: 78 nM

C[C@@H](OC(=O)c1cc2c(cn1)[nH]c1ccccc12)C(F)(F)F
Ki [3]: 453 nM
Ki ([1]; read-out: Ki): > 3000 nM
Ki [4]: 343 nM
Ki [2]: > 2000 nM
Ki [5]: 1850 nM
Ki [6]: 27 nM

CC(OC(=O)c1cc2c(cn1)[nH]c1ccccc12)c1ccccc1 (stereo not given)
Ki [6]: 33.5 nM

C#Cc1ccc2[nH]c3cnc(C(=O)OCC(F)(F)F)cc3c2c1
Ki [3]: 42.7 nM
Ki [4]: 44.6 nM
Ki [5]: 124 nM
Ki [6]: 4.5 nM

O=C(OCC(F)(F)F)c1cc2c(cn1)[nH]c1ccc(-c3ccccc3)cc12
Ki [3]: 125 nM
Ki [4]: 137 nM
Ki [5]: 299 nM
Ki [6]: 25 nM

CC(C)(C)OC(=O)c1cc2c(cn1)[nH]c1ccc(F)cc12
Ki [3]: 14.7 nM
Ki [4]: 4.54 nM
Ki [5]: 4.61 nM
Ki [6]: 1.62 nM

C#Cc1ccc2c(c1)c1cc(C(=O)OC(C)(C)C)ncc1n2C(=O)OC(C)(C)C
Ki [6]: 450 nM

CC(C)(C)OC(=O)c1cc2c(cn1)[nH]c1ccc(-c3ccco3)cc12
Ki [3]: 27.5 nM
Ki ([1]; hek293): Not Active
Ki [4]: 13 nM
Ki [5]: 163 nM
Ki [6]: 2.4 nM

C#Cc1ccc2[nH]c3cnc(C(=O)OC(C)(C)C)cc3c2c1
Ki [2]: 1980 nM
Ki [6]: 0.972 nM

CC/C=C/C=C/Oc1cc2c(cn1)[nH]c1ccccc12
Ki [3]: 859 nM
Ki [4]: 818 nM
Ki [6]: 245 nM
